For 7 molecules, EC50, Intrinsic activity and Ki results are on record in ChEMBL document CHEMBL1149929, “Novel 2-(2-furo[3,2-b]pyridinyl) pyrrolidines: potent neuronal nicotinic acetylcholine receptor ligands” (Bioorg Med Chem Lett, 1997).

Bounds are passed on as bounds.

For assay [1], the species on record is Rattus norvegicus. The experiment in a line: Tested for nAChR-mediated dopamine release from rat striatal slices. In kind it is functional.
The species named for assay [2] is Rattus norvegicus. The experiment in a line: Percent intrinsic activity relative to 100 uM (S)-nicotine. Format: functional.
Assay [3] in a line: Percent intrinsic activity against IMR-32 cells relative to 100 uM (S)-nicotine. Format: functional, Homo sapiens.
The target in assay [4] is T1, Neuronal acetylcholine receptor; alpha4/beta2 (Homo sapiens, UniProt P17787+P43681). Nature of the assay: Tested for functional activity against neuronal nicotinic acetylcholine receptor(nAChR) expressed in K177 cells using isotopic rubidium efflux assay. In kind it is cell-based.
The target in assay [5] is T1, Neuronal acetylcholine receptor; alpha4/beta2. The experiment in a line: (§1) Percent intrinsic activity against K177 cells relative to 100 uM (S)-nicotine. In kind it is functional, cell-based.
Assay [6] deals with T2, Acetylcholine receptor subunit alpha (Homo sapiens, UniProt P02708). Nature of the assay: Tested for functional activity against alpha-1 neuronal nicotinic acetylcholine receptor(nAChR) expressed in TE671 cells using isotopic rubidium efflux assay. Format: cell-based, TE-671.
The target in assay [7] is T2, Acetylcholine receptor subunit alpha. The experiment in a line: Percent intrinsic activity against TE671 cells relative to 100 uM (S)-nicotine. In kind it is functional, cell-based. Particulars: TE-671.
Assay [8] can be described thus: Tested for functional activity against neuronal nicotinic acetylcholine receptor(nAChR) expressed in IMR-32 cells using isotopic rubidium efflux assay. In kind it is cell-based. Particulars: Homo sapiens.
Assay [9] deals with Neuronal acetylcholine receptor. The experiment in a line: Tested for neuronal nicotinic acetylcholine receptor (nAChR) binding in a whole rat brain preparation using […] as the radioligand.
Assay [10] concerns the target T2, Acetylcholine receptor subunit alpha. The assay is described as §1. In kind it is functional, cell-based.

T2 sequence (P02708 whole entry): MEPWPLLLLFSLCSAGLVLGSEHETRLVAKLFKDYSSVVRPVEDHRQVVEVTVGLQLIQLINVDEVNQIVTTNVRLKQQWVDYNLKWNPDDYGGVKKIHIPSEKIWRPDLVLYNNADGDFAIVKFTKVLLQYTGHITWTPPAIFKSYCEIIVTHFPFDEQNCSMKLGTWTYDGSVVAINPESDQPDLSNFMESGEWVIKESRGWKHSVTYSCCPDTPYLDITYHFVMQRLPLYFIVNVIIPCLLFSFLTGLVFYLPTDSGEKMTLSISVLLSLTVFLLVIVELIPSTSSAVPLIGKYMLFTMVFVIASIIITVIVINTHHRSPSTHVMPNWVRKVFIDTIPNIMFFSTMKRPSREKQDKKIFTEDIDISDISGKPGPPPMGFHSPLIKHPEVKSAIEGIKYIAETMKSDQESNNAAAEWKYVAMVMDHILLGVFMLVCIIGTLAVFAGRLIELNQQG
T1 sequence (P17787 whole entry): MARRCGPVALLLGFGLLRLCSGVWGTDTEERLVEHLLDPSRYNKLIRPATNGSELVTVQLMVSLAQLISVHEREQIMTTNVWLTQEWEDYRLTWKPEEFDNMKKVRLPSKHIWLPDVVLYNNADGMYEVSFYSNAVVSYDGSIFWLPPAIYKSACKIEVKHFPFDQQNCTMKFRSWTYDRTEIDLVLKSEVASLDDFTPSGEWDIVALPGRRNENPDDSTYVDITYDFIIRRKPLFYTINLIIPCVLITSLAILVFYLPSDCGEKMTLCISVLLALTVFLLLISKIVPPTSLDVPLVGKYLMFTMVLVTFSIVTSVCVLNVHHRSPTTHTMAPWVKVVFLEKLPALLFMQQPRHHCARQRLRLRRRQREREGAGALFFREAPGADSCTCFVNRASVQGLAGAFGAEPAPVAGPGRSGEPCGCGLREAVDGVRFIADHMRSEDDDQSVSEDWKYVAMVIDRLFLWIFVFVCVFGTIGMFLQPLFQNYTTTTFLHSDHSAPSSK
T1 sequence (P43681 whole entry): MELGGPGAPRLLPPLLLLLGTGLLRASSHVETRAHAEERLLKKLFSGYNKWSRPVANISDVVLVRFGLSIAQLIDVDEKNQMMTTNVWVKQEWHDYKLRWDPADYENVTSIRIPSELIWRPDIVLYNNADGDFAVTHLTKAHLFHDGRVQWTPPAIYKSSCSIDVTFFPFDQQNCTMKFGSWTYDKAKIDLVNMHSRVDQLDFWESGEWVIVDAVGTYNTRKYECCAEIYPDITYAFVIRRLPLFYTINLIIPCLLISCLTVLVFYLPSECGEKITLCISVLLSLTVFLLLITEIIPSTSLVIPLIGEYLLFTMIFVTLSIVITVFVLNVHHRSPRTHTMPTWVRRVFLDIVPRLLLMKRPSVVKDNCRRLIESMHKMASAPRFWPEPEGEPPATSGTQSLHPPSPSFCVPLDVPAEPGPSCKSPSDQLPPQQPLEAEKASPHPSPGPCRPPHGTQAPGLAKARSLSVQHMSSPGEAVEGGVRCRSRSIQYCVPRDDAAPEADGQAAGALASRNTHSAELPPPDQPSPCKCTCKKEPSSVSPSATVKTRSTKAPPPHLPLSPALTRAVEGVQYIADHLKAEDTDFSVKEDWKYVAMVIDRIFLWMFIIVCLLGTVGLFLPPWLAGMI

As to `Cc1cc([C@@H]2CCCN2C)on1` [ABT-418], the EC50 (in general, the midpoint of the concentration-response curve) worked out at 380 µM in [1], 10.6 µM in [4], 411 µM in assay [6] and 64 µM in [8]. Further, the Intrinsic activity worked out at 100% in assay [2], 85% in assay [3], 93% in [5] and 38% in [7].

In the case of `c1cnc2cc([C@H]3CCCN3)oc2c1`, the results for the Intrinsic activity in assay [3] and in assay [5] were 57.8% and 30%, respectively. For the same molecule, the EC50 in [4] turned out to be 11 µM; in assay [8], 41.5 µM. For the same molecule, the Ki (in general, the equilibrium dissociation constant of an inhibitor or competing ligand from its target) in [9] came out at 0.00511 µM.

As for `CN1CCC[C@H]1c1cccnc1` [NICOTINE], the Intrinsic activity in assay [2], in [3], in assay [5] and in assay [7] was 100% throughout. Besides, the EC50 is 180 µM in [6] and 21 µM in assay [8].

Consider `CN1CCC[C@@H]1c1cc2ncccc2o1`, for which the Intrinsic activity in [3] amounted to 15.2%; in assay [5], 5.7%. Also, the EC50 in assay [4] and in [8] was over 1000 µM each time. In [9], this molecule had a Ki of 0.0979 µM.

`c1cnc2cc([C@@H]3CCCN3)oc2c1`: the Intrinsic activity in assay [3] came out at 9.2%; in [10] it was 7.4%. The same molecule gave a Ki in [9] of 0.0758 µM. Further, the EC50 in assay [8] is over 1000 µM.

Take `CN1CCC[C@H]1COc1cccnc1`: the EC50 in assay [1] turned out to be 107 µM; in assay [4], 0.75 µM; in [6], 34 µM; in [8], 24 µM. The Intrinsic activity turned out to be 74% in assay [2], 77.2% in assay [3], 100% in assay [5] and 40% in assay [7].

In the case of `CN1CCC[C@H]1c1cc2ncccc2o1`, the EC50 in assay [1] was 141 µM; in assay [4], 3.2 µM; in assay [6], over 100 µM; in [8], over 1000 µM. The Intrinsic activity in assay [2] was found to be 43%; in assay [3] it was 10.6%; in assay [5], 81%; in assay [7] it was 18.9%. Also, in [9], the Ki came to 0.00273 µM.
